Test results published in PubChem BioAssay AID330 (DTP/NCI, 2004).
Values joined by “and” are separate entries in the source; they are usually repeats but may differ in a detail not shown here. Equal entries are not always repeated. Toxic doses and inconclusive results are not listed. Rule for the calls: active = survival T/C of 150% or more; inactive = T/C below 125% in these data.

Test system: P388 leukemia ip, CD2F1 mice, survival T/C
Test: NCI In Vivo Anticancer Drug Screen. Data for tumor model P388 Leukemia (intraperitoneal) in CD2F1 (CDF1) mice
Settings: endpoint: median survival time, higher = longer survival
How it was run: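 Mice carrying the transplanted tumor received test compound or vehicle. Survival was recorded in each group, and the value is the treated-group measurement divided by that of the vehicle-treated control group.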

[1] = dose: 50.0 mg/kg/injection, schedule: Q01DX009 (ip), vehicle: saline
[2] = dose: 100.0 mg/kg/injection, schedule: Q01DX009 (ip), vehicle: saline
[3] = dose: 200.0 mg/kg/injection, schedule: Q01DX009 (ip), vehicle: saline
[4] = dose: 25.0 mg/kg/injection, schedule: Q01DX005 (ip), vehicle: saline
[5] = dose: 50.0 mg/kg/injection, schedule: Q01DX005 (ip), vehicle: saline
[6] = dose: 100.0 mg/kg/injection, schedule: Q01DX005 (ip), vehicle: saline
[7] = dose: 50.0 mg/kg/injection, schedule: Q01DX009 (ip), vehicle: Klucel (hydroxypropylcellulose) (HPC)
[8] = dose: 100.0 mg/kg/injection, schedule: Q01DX009 (ip), vehicle: Klucel (hydroxypropylcellulose) (HPC)
[9] = dose: 200.0 mg/kg/injection, schedule: Q01DX009 (ip), vehicle: Klucel (hydroxypropylcellulose) (HPC)
[10] = dose: 50.0 mg/kg/injection, schedule: Q01DX005 (ip), vehicle: Klucel (hydroxypropylcellulose) (HPC)
[11] = dose: 100.0 mg/kg/injection, schedule: Q01DX005 (ip), vehicle: Klucel (hydroxypropylcellulose) (HPC)
[12] = dose: 12.5 mg/kg/injection, schedule: Q01DX009 (ip), vehicle: saline
[13] = dose: 25.0 mg/kg/injection, schedule: Q01DX009 (ip), vehicle: saline
[14] = dose: 200.0 mg/kg/injection, schedule: Q01DX005 (ip), vehicle: Klucel (hydroxypropylcellulose) (HPC)

Measured: T/C

Cn1nnnc1SCC1=C(C(=O)O)N2C(=O)C(NC(=O)C(OC=O)c3ccccc3)C2SC1 (stereo not drawn)
inactive: [1] 100 % of control | [2] 97 % of control | [3] 104 % of control

NC(N)=NS(=O)(=O)c1ccc(N=NC2C(=O)N(c3ccc(Cl)cc3)C(=S)N(c3ccc(Cl)cc3)C2=O)cc1
inactive: [4] 103 % of control | [5] 106 % of control and 117 % of control | [6] 104 % of control and 124 % of control | dose: 200.0 mg/kg/injection, schedule: Q01DX005 (ip), vehicle: saline 108 % of control

CCOC(=O)N1CC2C=CC1C(C(=O)OC)=C2C(=O)OC (stereo not drawn)
inactive: [7] 109 % of control | [8] 113 % of control | [9] 113 % of control

CN1C2C=C(c3ccc(C(F)(F)F)cc3)CC1CC2 (stereo not drawn)
inactive: dose: 25.0 mg/kg/injection, schedule: Q01DX005 (ip), vehicle: Klucel (hydroxypropylcellulose) (HPC) 100 % of control and 107 % of control | [10] 106 % of control | [5] 102 % of control | [11] 98 % of control | [6] 104 % of control

CNC(C(=O)OC(C)(C)C)C(C)C (stereo not drawn)
inactive: [4] 98 % of control | [5] 99 % of control | [6] 99 % of control

COc1cc(C(=O)n2ncc(C(C)=O)c2C)cc(OC)c1OC
inactive: dose: 50.0 mg/kg/injection, schedule: Q01DX009 (ip), vehicle: saline with Tween-80 103 % of control | dose: 100.0 mg/kg/injection, schedule: Q01DX009 (ip), vehicle: saline with Tween-80 106 % of control | dose: 200.0 mg/kg/injection, schedule: Q01DX009 (ip), vehicle: saline with Tween-80 116 % of control

ClC(Cl)(Cl)Cl
inactive: dose: 0.37 % in 0.5 ml injection vol, schedule: Q01DX009 (ip), vehicle: water 103 % of control | dose: 0.75 % in 0.5 ml injection vol, schedule: Q01DX009 (ip), vehicle: water 103 % of control | dose: 1.5 % in 0.5 ml injection vol, schedule: Q01DX009 (ip), vehicle: water 104 % of control

Oc1c(Cl)cc(Cl)cc1CN1CCOCC1
inactive: dose: 50.0 mg/kg/injection, schedule: Q01DX009 (ip), vehicle: suspension in saline 89 % of control | dose: 100.0 mg/kg/injection, schedule: Q01DX009 (ip), vehicle: suspension in saline 87 % of control | dose: 200.0 mg/kg/injection, schedule: Q01DX009 (ip), vehicle: suspension in saline 98 % of control | dose: 400.0 mg/kg/injection, schedule: Q01DX009 (ip), vehicle: suspension in saline 109 % of control

O=C1c2ccccc2-c2c(Br)cc(Br)c(NC(=O)C(Cl)Cl)c21
inactive: dose: 60.0 mg/kg/injection, schedule: Q01DX005 (ip), vehicle: saline with Tween-80 96 % of control | dose: 120.0 mg/kg/injection, schedule: Q01DX005 (ip), vehicle: saline with Tween-80 96 % of control | dose: 240.0 mg/kg/injection, schedule: Q01DX005 (ip), vehicle: saline with Tween-80 92 % of control

c1cc(-n2nnc3cnccc32)ccn1
inactive: dose: 3.12 mg/kg/injection, schedule: Q01DX009 (ip), vehicle: saline 91 % of control | dose: 6.25 mg/kg/injection, schedule: Q01DX009 (ip), vehicle: saline 100 % of control | dose: 6.25 mg/kg/injection, schedule: Q04DX003 (ip), vehicle: saline 109 % of control | [12] 98 % of control | dose: 12.5 mg/kg/injection, schedule: Q04DX003 (ip), vehicle: saline 104 % of control | dose: 25.0 mg/kg/injection, schedule: Q01DX009 (ip), vehicle: suspension in saline 109 % of control | dose: 25.0 mg/kg/injection, schedule: Q04DX003 (ip), vehicle: saline 100 % of control

CNC(=O)N(C)C/C=C/CN(C)C(=O)NC
inactive: [1] 105 % of control | [2] 102 % of control | [3] 102 % of control

O=N[O-].[Co].[NH2-].[NH2-].[NH2-].[NH2-].[NH2-]
inactive: [12] 90 % of control | [13] 95 % of control | [1] 95 % of control

CC(C)(C)OC(=O)NC(CSCc1ccccc1)C(=O)ON1C(=O)CCC1=O (stereo not drawn)
inactive: [10] 100 % of control | [11] 98 % of control | [14] 94 % of control

COC1=CC(=O)C(CC=C(C)C)=CC1=O
inactive: [10] 100 % of control | [11] 102 % of control | [14] 105 % of control

COc1ccccc1-n1c(Cc2cccc3ccccc23)nnc1SCC(=O)O
inactive: [10] 100 % of control | [11] 100 % of control | [14] 100 % of control

CC1(C)C=Cc2c(cc(O)c3c(=O)c4cccnc4oc23)O1
inactive: [10] 90 % of control | [11] 102 % of control | [14] 90 % of control

c1ccc2c(c1)CC/C2=N\OCC1CO1 (stereo not drawn)
inactive: dose: 100.0 mg/kg/injection, schedule: Q04DX002 (ip), vehicle: saline with Tween-80 102 % of control | dose: 200.0 mg/kg/injection, schedule: Q04DX002 (ip), vehicle: saline with Tween-80 104 % of control | dose: 400.0 mg/kg/injection, schedule: Q04DX002 (ip), vehicle: saline with Tween-80 106 % of control

COc1ccc(OCC2=NCCc3ccccc32)cc1
inactive: [10] 99 % of control | [11] 107 % of control | [14] 109 % of control

COCN(C)N=Nc1ccc(C(=O)OC)cc1
inactive: dose: 60.0 mg/kg/injection, schedule: Q01DX005 (ip), vehicle: Klucel (hydroxypropylcellulose) (HPC) 107 % of control | dose: 120.0 mg/kg/injection, schedule: Q01DX005 (ip), vehicle: Klucel (hydroxypropylcellulose) (HPC) 101 % of control | dose: 240.0 mg/kg/injection, schedule: Q01DX005 (ip), vehicle: Klucel (hydroxypropylcellulose) (HPC) 87 % of control

CC1=C[P+](c2ccccc2)(c2ccccc2)c2ccccc2O1
inactive: dose: 1.56 mg/kg/injection, schedule: Q01DX005 (ip), vehicle: Klucel (hydroxypropylcellulose) (HPC) 96 % of control | dose: 3.12 mg/kg/injection, schedule: Q01DX005 (ip), vehicle: Klucel (hydroxypropylcellulose) (HPC) 109 % of control | dose: 6.25 mg/kg/injection, schedule: Q01DX005 (ip), vehicle: Klucel (hydroxypropylcellulose) (HPC) 110 % of control

CONc1ccn(C2OC(CO)C(O)C2O)c(=O)n1 (stereo not drawn)
inactive: [12] 101 % of control and 104 % of control | [13] 112 % of control and 117 % of control | [1] 99 % of control and 113 % of control | [2] 112 % of control

Cc1ccc(CSCC(NC(=O)OC(C)(C)C)C(=O)O)cc1 (stereo not drawn)
inactive: [10] 104 % of control | [11] 97 % of control | [14] 92 % of control

COC(=O)c1cc(-c2ccncc2)[nH]c(=O)c1C#N
inactive: dose: 60.0 mg/kg/injection, schedule: Q01DX005 (ip), vehicle: saline 101 % of control | dose: 120.0 mg/kg/injection, schedule: Q01DX005 (ip), vehicle: saline 99 % of control | dose: 240.0 mg/kg/injection, schedule: Q01DX005 (ip), vehicle: saline 94 % of control

O=C(CC[N+](=O)[O-])OCC1OC(O)C(OC(=O)CC[N+](=O)[O-])C(O)C1O (stereo not drawn)
inactive: dose: 12.5 mg/kg/injection, schedule: Q01DX005 (ip), vehicle: distilled water + Tween-80 100 % of control | dose: 18.75 mg/kg/injection, schedule: Q01DX001 (ip), vehicle: saline + alcohol 100 % of control | dose: 25.0 mg/kg/injection, schedule: Q01DX005 (ip), vehicle: distilled water + Tween-80 97 % of control | dose: 37.5 mg/kg/injection, schedule: Q01DX001 (ip), vehicle: saline + alcohol 101 % of control | dose: 50.0 mg/kg/injection, schedule: Q01DX005 (ip), vehicle: distilled water + Tween-80 100 % of control | dose: 75.0 mg/kg/injection, schedule: Q01DX001 (ip), vehicle: saline + alcohol 109 % of control | dose: 100.0 mg/kg/injection, schedule: Q01DX005 (ip), vehicle: distilled water + Tween-80 98 % of control | dose: 200.0 mg/kg/injection, schedule: Q01DX005 (ip), vehicle: distilled water + Tween-80 100 % of control

COC(=O)c1ccc(SCC2(CCN3C(=O)c4ccccc4C3=O)OCCO2)cc1
inactive: dose: 100.0 mg/kg/injection, schedule: Q04DX003 (ip), vehicle: Klucel (hydroxypropylcellulose) (HPC) 97 % of control | dose: 200.0 mg/kg/injection, schedule: Q04DX003 (ip), vehicle: Klucel (hydroxypropylcellulose) (HPC) 96 % of control | dose: 400.0 mg/kg/injection, schedule: Q04DX003 (ip), vehicle: Klucel (hydroxypropylcellulose) (HPC) 88 % of control

CC(=O)Nc1ccc(C(=O)O)c([N+](=O)[O-])c1
inactive: dose: 25.0 mg/kg/injection, schedule: Q01DX009 (ip), vehicle: Klucel (hydroxypropylcellulose) (HPC) 100 % of control | [7] 107 % of control | [8] 102 % of control | [9] 107 % of control
